Patent US20110275679A1, “FLUPIRTINE HYDROCHLORIDE MALEIC ACID COCRYSTAL” (Bionevia Pharmaceuticals, Inc., priority 2008, published 2011)
Counter-ions that a name gives are not always drawn.

Legend:
[1] = Intrinsic dissolution in water at 37° C. (Woods apparatus pellet, UV absorbance at 343 nm); type: physicochemical
Procedure: Intrinsic Dissolution: Pellets of approximately 200 mg were pressed at 3000 lbs. for 1 minute in a standard Woods apparatus, with a surface area of 0.5 cm^2. One pellet was tested for each material. The samples were rotated in a VanKel dissolution apparatus, with automated sampling, at 100 RPM in 900 mL of water at 37° C. Aliquots were taken every two minutes and not filtered prior to analysis. […] A wavelength of approximately 343 nm was chosen for the cocrystal to avoid potential interference from maleic acid. To determine the rate of dissolution of each material, a plot was generated of the absorbance over time for each material. From this plot, a linear region was chosen from the initial dissolution period of each material. Concentrations were plotted versus time for the regions. A straight-line was fit to the data for each material. The slope of these lines provides the dissolution rate for each of the materials, expressed as [μg/mL]/min. The rates were not normalized for the surface area of the pellet. Aliquots of the dissolution medium were removed manually at the end of the run and analyzed by UV spectrophotometry, and the remainder of the pellets were recovered for XRPD analysis. FIG. 2-3 depicts the UV absorbance (at 343 nm) vs. time curves for the intrinsic dissolution experiment on flupirtine maleate in water at 37° C. […] Intrinsic dissolution experiments were performed under sink conditions in water at 37° C. […] The intrinsic dissolution rate of the 1:1 flupirtine hydrochloride maleic acid cocrystal was ˜0.21 μg/mL/min. There appeared to be a slow chemical change occurring in the dissolution medium. The solid recovered from the intrinsic dissolution experiment was analyzed by XRPD and determined to correspond to a mixture of the flupirtine hydrochloride maleic acid cocrystal and a small amount of an unidentified material.

[2] = cited from earlier work
[3] = in man; cited from earlier work
[4] = water, 37° C., 100 RPM, 900 mL, 0.5 cm^2 pellet, not normalized for surface area

Row | intrinsic dissolution rate ([1]; sink conditions in water at 37° C.) [µg/mL/min] | intrinsic dissolution rate [1, 4] | aqueous solubility as indicated by low absorbance values in the intrinsic dissolution experiment ([1]; water, 37° C., UV absorbance at 343 nm) | SMILES | solubility in water [2] | time to maximum plasma concentration (tmax) [3] [h]
1 | ~0.21 | 0.21 [μg/mL]/min | – | CCOC(=O)Nc1ccc(NCc2ccc(F)cc2)nc1N.Cl.O=C(O)C=CC(=O)O | – | –
2 | – | 0.088 [μg/mL]/min | poor aqueous solubility | CCOC(=O)Nc1ccc(NCc2ccc(F)cc2)nc1N [flupirtine maleate] | insoluble in water | –
3 | – | – | – | CCOC(=O)Nc1ccc(NCc2ccc(F)cc2)nc1N [flupirtine, 2-amino-3-carbethoxyamino-6-(p-fluorobenzylamino)pyridine] | – | 2
